Reference: patent US20100267561A1, “HERBICIDAL PYRIDAZINONE DERIVATIVES” (priority 2007, published 2010)

Assays:
Experiment in all cases: Test C pre-/postemergence plant response
Type in all cases: in vivo
[1] = tested on: Italian ryegrass (Lolium multiflorum)
Summary of the method: (§1)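 Seeds are planted and sprayed preemergence, while established plants at the 1- to 4-leaf stage (2 to 18 cm) receive postemergence sprays of the same surfactant-containing, non-phytotoxic solvent formulation. After 15 to 25 days under controlled conditions, injury is scored visually from 0 (no effect) to 100 (complete control).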

[2] = tested on: annual bluegrass (Poa annua)
Summary of the method: as §1

[3] = tested on: blackgrass (Alopecurus myosuroides)
Summary of the method: as §1

[4] = tested on: canarygrass (Phalaris minor)
Summary of the method: as §1

canola (Brassica rapa) = tested on: canola (Brassica rapa)
Summary of the method: as §1

[5] = tested on: downy bromegrass (Bromus tectorum)
Summary of the method: as §1

[6] = tested on: green foxtail (Setaria viridis)
Summary of the method: as §1

[7] = tested on: pigweed (Amaranthus retroflexus)
Summary of the method: as §1

[8] = tested on: spring barley (Hordeum vulgare)
Summary of the method: as §1

[9] = tested on: spring wheat (Triticum aestivum)
Summary of the method: as §1

[10] = tested on: wild mustard (Sinapis arvensis)
Summary of the method: as §1

wild oat (Avena fatua) = tested on: wild oat (Avena fatua)
Summary of the method: as §1

[11] = tested on: windgrass (Apera spica-venti)
Summary of the method: as §1

[12] = tested on: winter barley (Hordeum vulgare)
Summary of the method: as §1

[13] = tested on: winter wheat (Triticum aestivum)
Summary of the method: as §1

[14] = Postemergence, 8 g ai/ha, scale 0 to 100, 0 no effect, 100 complete control
[15] = Postemergence, 16 g ai/ha, scale 0 to 100, 0 no effect, 100 complete control
[16] = Postemergence, 31 g ai/ha, scale 0 to 100, 0 no effect, 100 complete control
[17] = Postemergence, 62 g ai/ha, scale 0 to 100, 0 no effect, 100 complete control
[18] = Preemergence, 8 g ai/ha, scale 0 to 100 (0 no effect, 100 complete control)
[19] = Preemergence, 16 g ai/ha, scale 0 to 100 (0 no effect, 100 complete control)
[20] = Preemergence, 31 g ai/ha, scale 0 to 100 (0 no effect, 100 complete control)
[21] = Preemergence, 62 g ai/ha, scale 0 to 100, 0 no effect, 100 complete control

Structure (SMILES): Cc1cc(-c2ccc(C(F)(F)F)c(F)c2)nn1-c1c(O)c(C(F)(F)F)nn(C)c1=O [Compound 44]
- Plant response rating, Ryegrass, Italian [1, 14]: 90
- Plant response rating, Ryegrass, Italian [1, 15]: 98
- Plant response rating, Ryegrass, Italian [1, 16]: 100
- Plant response rating, Ryegrass, Italian [1, 17]: 100
- Plant response rating, Ryegrass, Italian [1, 18]: 90
- Plant response rating, Ryegrass, Italian [1, 19]: 100
- Plant response rating, Ryegrass, Italian [1, 20]: 100
- Plant response rating, Ryegrass, Italian [1, 21]: 100
- Plant response rating, Bluegrass [2, 14]: 0
- Plant response rating, Bluegrass [2, 15]: 0
- Plant response rating, Bluegrass [2, 16]: 0
- Plant response rating, Bluegrass [2, 17]: 0
- Plant response rating, Bluegrass [2, 18]: 0
- Plant response rating, Bluegrass [2, 19]: 0
- Plant response rating, Bluegrass [2, 20]: 0
- Plant response rating, Bluegrass [2, 21]: 0
- Plant response rating, Blackgrass [3, 14]: 90
- Plant response rating, Blackgrass [3, 15]: 98
- Plant response rating, Blackgrass [3, 16]: 100
- Plant response rating, Blackgrass [3, 17]: 100
- Plant response rating, Blackgrass [3, 19]: 25
- Plant response rating, Blackgrass [3, 20]: 100
- Plant response rating, Blackgrass [3, 21]: 100
- Plant response rating, Canarygrass [4, 14]: 75
- Plant response rating, Canarygrass [4, 15]: 80
- Plant response rating, Canarygrass [4, 16]: 90
- Plant response rating, Canarygrass [4, 17]: 100
- Plant response rating, Canarygrass [4, 18]: 30
- Plant response rating, Canarygrass [4, 19]: 65
- Plant response rating, Canarygrass [4, 20]: 75
- Plant response rating, Canarygrass [4, 21]: 85
- Plant response rating, Canola (canola (Brassica rapa); [14]): 0
- Plant response rating, Canola (canola (Brassica rapa); [15]): 0
- Plant response rating, Canola (canola (Brassica rapa); [16]): 0
- Plant response rating, Canola (canola (Brassica rapa); [17]): 0
- Plant response rating, Canola (canola (Brassica rapa); [18]): 0
- Plant response rating, Canola (canola (Brassica rapa); [19]): 0
- Plant response rating, Canola (canola (Brassica rapa); [20]): 0
- Plant response rating, Canola (canola (Brassica rapa); [21]): 0
- Plant response rating, Bromegrass, Downy [5, 14]: 15
- Plant response rating, Bromegrass, Downy [5, 15]: 40
- Plant response rating, Bromegrass, Downy [5, 16]: 65
- Plant response rating, Bromegrass, Downy [5, 17]: 75
- Plant response rating, Bromegrass, Downy [5, 18]: 0
- Plant response rating, Bromegrass, Downy [5, 19]: 20
- Plant response rating, Bromegrass, Downy [5, 20]: 50
- Plant response rating, Bromegrass, Downy [5, 21]: 80
- Plant response rating, Foxtail, Green [6, 14]: 50
- Plant response rating, Foxtail, Green [6, 15]: 95
- Plant response rating, Foxtail, Green [6, 16]: 98
- Plant response rating, Foxtail, Green [6, 17]: 100
- Plant response rating, Foxtail, Green [6, 18]: 15
- Plant response rating, Foxtail, Green [6, 19]: 90
- Plant response rating, Foxtail, Green [6, 20]: 100
- Plant response rating, Foxtail, Green [6, 21]: 100
- Plant response rating, Pigweed [7, 14]: 0
- Plant response rating, Pigweed [7, 15]: 0
- Plant response rating, Pigweed [7, 16]: 0
- Plant response rating, Pigweed [7, 17]: 0
- Plant response rating, Pigweed [7, 18]: 0
- Plant response rating, Pigweed [7, 19]: 20
- Plant response rating, Pigweed [7, 20]: 20
- Plant response rating, Pigweed [7, 21]: 20
- Plant response rating, Barley, Spring [8, 14]: 60
- Plant response rating, Barley, Spring [8, 15]: 95
- Plant response rating, Barley, Spring [8, 16]: 95
- Plant response rating, Barley, Spring [8, 17]: 98
- Plant response rating, Barley, Spring [8, 18]: 0
- Plant response rating, Barley, Spring [8, 19]: 60
- Plant response rating, Barley, Spring [8, 20]: 60
- Plant response rating, Barley, Spring [8, 21]: 75
- Plant response rating, Wheat, Spring [9, 14]: 70
- Plant response rating, Wheat, Spring [9, 15]: 95
- Plant response rating, Wheat, Spring [9, 16]: 95
- Plant response rating, Wheat, Spring [9, 17]: 100
- Plant response rating, Wheat, Spring [9, 18]: 0
- Plant response rating, Wheat, Spring [9, 19]: 20
- Plant response rating, Wheat, Spring [9, 20]: 70
- Plant response rating, Wheat, Spring [9, 21]: 75
- Plant response rating, Mustard, Wild [10, 14]: 0
- Plant response rating, Mustard, Wild [10, 15]: 0
- Plant response rating, Mustard, Wild [10, 16]: 0
- Plant response rating, Mustard, Wild [10, 17]: 0
- Plant response rating, Mustard, Wild [10, 18]: 0
- Plant response rating, Mustard, Wild [10, 19]: 0
- Plant response rating, Mustard, Wild [10, 20]: 0
- Plant response rating, Oat, Wild (wild oat (Avena fatua); [14]): 100
- Plant response rating, Oat, Wild (wild oat (Avena fatua); [15]): 100
- Plant response rating, Oat, Wild (wild oat (Avena fatua); [16]): 100
- Plant response rating, Oat, Wild (wild oat (Avena fatua); [17]): 100
- Plant response rating, Oat, Wild (wild oat (Avena fatua); [18]): 50
- Plant response rating, Oat, Wild (wild oat (Avena fatua); [19]): 75
- Plant response rating, Oat, Wild (wild oat (Avena fatua); [20]): 80
- Plant response rating, Oat, Wild (wild oat (Avena fatua); [21]): 90
- Plant response rating, Windgrass [11, 14]: 50
- Plant response rating, Windgrass [11, 15]: 90
- Plant response rating, Windgrass [11, 16]: 95
- Plant response rating, Windgrass [11, 17]: 100
- Plant response rating, Windgrass [11, 18]: 100
- Plant response rating, Windgrass [11, 19]: 100
- Plant response rating, Windgrass [11, 20]: 100
- Plant response rating, Windgrass [11, 21]: 100
- Plant response rating, Barley, Winter [12, 14]: 20
- Plant response rating, Barley, Winter [12, 15]: 75
- Plant response rating, Barley, Winter [12, 16]: 90
- Plant response rating, Barley, Winter [12, 17]: 95
- Plant response rating, Barley, Winter [12, 18]: 0
- Plant response rating, Barley, Winter [12, 19]: 50
- Plant response rating, Barley, Winter [12, 20]: 75
- Plant response rating, Barley, Winter [12, 21]: 75
- Plant response rating, Wheat, Winter [13, 14]: 75
- Plant response rating, Wheat, Winter [13, 15]: 80
- Plant response rating, Wheat, Winter [13, 16]: 95
- Plant response rating, Wheat, Winter [13, 17]: 98
- Plant response rating, Wheat, Winter [13, 18]: 40
- Plant response rating, Wheat, Winter [13, 19]: 65
- Plant response rating, Wheat, Winter [13, 21]: 70
